PMC10838382 (Cancer Drug Resistance, 2024)
Like-named read-outs stand apart in the source and are kept apart here.

How the values were obtained:
[1] = tested on: 22Rv1DOC8; assay: 3D clonogenic assay (soft agar); assay type: cell-based, human; details: 3D clonogenic assay; for IC50: 22Rv1DOC8, read-out: Cabazitaxel IC50; for Relative resistance: 22Rv1DOC8 vs 22Rv1
[2] = tested on: DU-145; assay: 3D clonogenic assay (soft agar); details: for IC50: Homo sapiens, DU-145, read-out: Cabazitaxel IC50, DU-145, 3D clonogenic assay
[3] = tested on: DU-145DOC10; assay: 3D clonogenic assay (soft agar); assay type: cell-based, human; details: for Relative resistance: DU-145DOC10 vs DU-145; for IC50: Homo sapiens, DU-145DOC10
[4] = tested on: 22Rv1; assay: 3D clonogenic assay (soft agar); details: for IC50: Homo sapiens, 22Rv1, read-out: Cabazitaxel IC50, 22Rv1, 3D clonogenic assay
[5] = tested on: MAXFTN MCF 10A; assay: cells; details: Homo sapiens, read-out: Relative ritonavir IC50
[6] = tested on: MAXFLB MCF7; assay: cells; details: Homo sapiens, MCF7, read-out: Relative ritonavir IC50
[7] = tested on: GXA NUGC-4; assay: cells; details: Homo sapiens, NUGC-4, read-out: Relative ritonavir IC50
[8] = tested on: OVXF EFO-27; assay: 2D proliferation assay (CellTiter-Blue); details: Homo sapiens, EFO-27, read-out: Relative ritonavir IC50
[9] = tested on: LXFA EKVX; assay: cells; details: Homo sapiens, read-out: Relative ritonavir IC50
[10] = tested on: DU-145 cells; details: NCI60 panel, read-out: IC50 value, anti-proliferative effect; cited from earlier work
[11] = tested on: PRXF DU-145; assay: 2D proliferation assay (CellTiter-Blue); assay type: cell-based, human; details: 2D proliferation assay
[12] = tested on: OVXF NCI-ADR-RES; assay: cells; details: Homo sapiens, read-out: Relative ritonavir IC50
[13] = tested on: PRXF 22Rv1; assay: 2D proliferation assay (CellTiter-Blue); assay type: cell-based; details: Homo sapiens, read-out: Relative ritonavir IC50; PRXF 22Rv1; 2D proliferation assay
[14] = tested on: MAXFTN MX1; assay: 2D proliferation assay (CellTiter-Blue); details: read-out: Relative ritonavir IC50
[15] = tested on: PC-3M; assay: 2D proliferation assay (CellTiter-Blue); details: Homo sapiens, read-out: Relative ritonavir IC50
[16] = tested on: LXFA 737; assay: 2D proliferation assay (CellTiter-Blue); details: read-out: Relative ritonavir IC50
[17] = tested on: OVXF 899; assay: cells; details: read-out: Relative ritonavir IC50
[18] = tested on: GXA 3011; assay: cells; details: read-out: Relative ritonavir IC50
[19] = tested on: DU-145; details: read-out: IC50, single agent ritonavir; DU-145 proliferation assay; cited from earlier work
[20] = tested on: PC-3; assay: 2D proliferation assay (CellTiter-Blue); assay type: cell-based; details: Homo sapiens, read-out: Relative ritonavir IC50, PC-3
[21] = tested on: MAXFTN CAL-51; assay: cells; details: Homo sapiens, CAL-51, read-out: Relative ritonavir IC50
[22] = tested on: 15 tumor cell lines; assay: 2D proliferation assay (CellTiter-Blue), panel of 15 tumor cell lines; details: at the concentration ranges tested; 2D proliferation assay

## CO[C@H]1C(=O)[C@]2(C)[C@@H](OC)C[C@H]3OC[C@@]3(OC(C)=O)[C@H]2[C@H](OC(=O)c2ccccc2)[C@]2(O)C[C@H](OC(=O)[C@H](O)[C@@H](NC(=O)OC(C)(C)C)c3ccccc3)C(C)=C1C2(C)C [Cabazitaxel]
[1]; + ritonavir 32 µM
  IC50: 0.0007 µM
[1]; cabazitaxel + ritonavir 10 µM
  Relative resistance: 7.4
[1]; cabazitaxel + ritonavir 32 µM
  Relative resistance: 1.0
[1]; cabazitaxel without ritonavir
  Relative resistance: 13.6
[1]; Homo sapiens, + ritonavir 10 µM
  IC50: 0.0052 µM
[1]; Homo sapiens, + ritonavir 32 µM
  IC50: 0.0006 µM
[1]; Homo sapiens, without ritonavir
  IC50: 0.0095 µM
[2]; + ritonavir 10 µM
  IC50: 0.0003 µM
[2]; without ritonavir
  IC50: 0.0006 µM
[3]; cabazitaxel + ritonavir 10 µM, 3D clonogenic assay
  Relative resistance: 1.0
[3]; cabazitaxel without ritonavir, 3D clonogenic assay
  Relative resistance: 2.5
[3]; 3D clonogenic assay, + ritonavir 10 µM, read-out: Cabazitaxel IC50
  IC50: 0.0006 µM
[3]; 3D clonogenic assay, without ritonavir, read-out: Cabazitaxel IC50
  IC50: 0.0015 µM
[3]; cabazitaxel alone, Figure 7A, read-out: IC 50
  IC50: 0.00146 µM
[4]; + ritonavir 10 µM
  IC50: 0.0007 µM
[4]; + ritonavir 32 µM
  IC50: 0.0007 µM
[4]; without ritonavir
  IC50: 0.0007 µM

## COc1cc2c(cc1OC)CN(CCc1ccc(NC(=O)c3cccc4c(=O)c5cccc(OC)c5[nH]c34)cc1)CC2 [Elacridar]
[2]; DU-145 parental, data not shown
  effect of elacridar alone on parental cells: no effect
[4]; 22Rv1 parental, data not shown
  effect of elacridar alone on parental cells: no effect

## CC(C)c1nc(CN(C)C(=O)N[C@H](C(=O)N[C@@H](Cc2ccccc2)C[C@H](O)[C@H](Cc2ccccc2)NC(=O)OCc2cncs2)C(C)C)cs1 [Ritonavir]
[5]
  IC50: > 30 µM
[6]
  IC50: > 30 µM
[7]
  IC50: 1.27 µM
[8]
  IC50: > 30 µM
[9]
  IC50: > 30 µM
[10]
  IC50: > 20 µM
[11]; Homo sapiens, DU-145, read-out: Relative ritonavir IC50, PRXF DU-145
  IC50: 16.2 µM
[11]; read-out: Relative ritonavir IC50, PRXF DU-145
  IC50: 16.3 µM
[12]
  IC50: > 30 µM
[13]
  IC50: 29.3 µM
[14]
  IC50: > 22.6 µM
[15]
  IC50: 23.3 µM
[16]
  IC50: > 30 µM
[17]
  IC50: 25.7 µM
[18]
  IC50: > 30 µM
[19]
  IC50: 3 µM
[20]
  IC50: 21.7 µM
[21]
  IC50: > 30 µM
[22]
  single agent activity: no considerable or only low activity
